Test results as given in ChEMBL document CHEMBL4177603 (Bioorg Med Chem Lett, 2017).
Values after ≈ are worked out from the molar mass of the structure shown.

Assays:
[1] = biological target: Sodium channel protein type 5 subunit alpha (Homo sapiens, UniProt Q14524); experiment: Inhibition of human Nav1.5 expressed in HEK cells by automated patchXpress electrophysiology method; type: ADME, cell-based
[2] = biological target: T1, Sodium channel protein type 9 subunit alpha (Homo sapiens, UniProt Q15858); experiment: Inhibition of human Nav1.7 expressed in HEK cells by automated patchXpress electrophysiology method; type: cell-based
[3] = biological target: T1, Sodium channel protein type 9 subunit alpha; experiment: Inhibition of human Nav1.7 expressed in HEK cells by patch clamp electrophysiology method; type: cell-based
[4] = Solubility of the compound in aqueous buffer at pH 3; type: physicochemical
[5] = Solubility of the compound in aqueous buffer at pH 5.1; type: physicochemical
[6] = Solubility of the compound in aqueous buffer at pH 4.2; type: physicochemical
[7] = Solubility of the compound in aqueous buffer at pH 7.2; type: physicochemical

T1 sequence (Q15858 whole entry): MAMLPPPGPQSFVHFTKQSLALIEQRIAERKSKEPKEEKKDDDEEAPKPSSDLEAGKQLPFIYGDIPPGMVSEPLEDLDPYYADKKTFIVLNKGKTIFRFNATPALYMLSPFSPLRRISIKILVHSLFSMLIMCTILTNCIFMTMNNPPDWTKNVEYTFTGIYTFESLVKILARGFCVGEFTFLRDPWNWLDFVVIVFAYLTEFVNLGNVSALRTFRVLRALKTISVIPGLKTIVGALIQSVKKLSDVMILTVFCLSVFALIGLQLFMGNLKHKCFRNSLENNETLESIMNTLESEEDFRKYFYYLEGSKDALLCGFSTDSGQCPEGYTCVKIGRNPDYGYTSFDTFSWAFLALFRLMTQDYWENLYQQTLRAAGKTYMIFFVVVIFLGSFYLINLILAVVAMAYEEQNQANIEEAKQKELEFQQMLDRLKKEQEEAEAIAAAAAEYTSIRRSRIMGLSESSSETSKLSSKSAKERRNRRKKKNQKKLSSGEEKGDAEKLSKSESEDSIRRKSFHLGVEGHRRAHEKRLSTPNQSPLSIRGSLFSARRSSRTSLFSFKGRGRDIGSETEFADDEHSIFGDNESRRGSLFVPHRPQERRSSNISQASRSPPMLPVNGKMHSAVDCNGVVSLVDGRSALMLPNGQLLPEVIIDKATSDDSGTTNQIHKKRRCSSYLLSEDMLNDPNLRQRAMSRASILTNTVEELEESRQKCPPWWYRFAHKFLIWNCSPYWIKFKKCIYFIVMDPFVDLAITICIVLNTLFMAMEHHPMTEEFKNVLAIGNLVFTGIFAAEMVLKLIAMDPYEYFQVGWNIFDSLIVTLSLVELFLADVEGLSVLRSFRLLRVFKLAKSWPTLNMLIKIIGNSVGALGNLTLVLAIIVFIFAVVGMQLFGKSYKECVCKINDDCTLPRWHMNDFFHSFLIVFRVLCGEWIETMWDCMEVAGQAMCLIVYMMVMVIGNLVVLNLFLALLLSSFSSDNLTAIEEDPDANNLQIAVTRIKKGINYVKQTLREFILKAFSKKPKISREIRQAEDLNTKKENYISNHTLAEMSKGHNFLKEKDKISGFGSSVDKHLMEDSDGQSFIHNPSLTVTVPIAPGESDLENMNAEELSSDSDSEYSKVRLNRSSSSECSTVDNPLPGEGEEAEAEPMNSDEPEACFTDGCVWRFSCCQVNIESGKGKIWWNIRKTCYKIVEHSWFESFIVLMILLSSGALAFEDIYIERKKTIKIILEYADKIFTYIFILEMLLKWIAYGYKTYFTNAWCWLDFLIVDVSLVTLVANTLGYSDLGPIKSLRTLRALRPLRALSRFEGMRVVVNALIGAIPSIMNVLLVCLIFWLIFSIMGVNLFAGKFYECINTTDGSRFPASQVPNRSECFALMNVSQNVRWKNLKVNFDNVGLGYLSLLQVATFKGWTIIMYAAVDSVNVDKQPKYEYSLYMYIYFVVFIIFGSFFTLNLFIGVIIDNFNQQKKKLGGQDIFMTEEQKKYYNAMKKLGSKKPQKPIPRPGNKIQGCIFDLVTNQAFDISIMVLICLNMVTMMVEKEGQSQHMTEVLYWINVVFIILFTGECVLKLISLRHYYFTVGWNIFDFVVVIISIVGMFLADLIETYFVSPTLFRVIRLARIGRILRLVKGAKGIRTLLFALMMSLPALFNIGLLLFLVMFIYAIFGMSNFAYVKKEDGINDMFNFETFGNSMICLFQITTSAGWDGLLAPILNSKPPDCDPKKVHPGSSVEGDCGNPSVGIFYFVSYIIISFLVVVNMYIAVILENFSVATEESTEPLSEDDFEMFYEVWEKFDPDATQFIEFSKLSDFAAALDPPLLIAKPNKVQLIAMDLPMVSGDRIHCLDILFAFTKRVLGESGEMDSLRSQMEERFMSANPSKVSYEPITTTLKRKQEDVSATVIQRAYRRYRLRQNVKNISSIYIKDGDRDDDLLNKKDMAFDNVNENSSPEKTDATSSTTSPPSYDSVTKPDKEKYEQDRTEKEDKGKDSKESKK
Sodium channel protein type 5 subunit alpha, sequence (Q14524 whole entry): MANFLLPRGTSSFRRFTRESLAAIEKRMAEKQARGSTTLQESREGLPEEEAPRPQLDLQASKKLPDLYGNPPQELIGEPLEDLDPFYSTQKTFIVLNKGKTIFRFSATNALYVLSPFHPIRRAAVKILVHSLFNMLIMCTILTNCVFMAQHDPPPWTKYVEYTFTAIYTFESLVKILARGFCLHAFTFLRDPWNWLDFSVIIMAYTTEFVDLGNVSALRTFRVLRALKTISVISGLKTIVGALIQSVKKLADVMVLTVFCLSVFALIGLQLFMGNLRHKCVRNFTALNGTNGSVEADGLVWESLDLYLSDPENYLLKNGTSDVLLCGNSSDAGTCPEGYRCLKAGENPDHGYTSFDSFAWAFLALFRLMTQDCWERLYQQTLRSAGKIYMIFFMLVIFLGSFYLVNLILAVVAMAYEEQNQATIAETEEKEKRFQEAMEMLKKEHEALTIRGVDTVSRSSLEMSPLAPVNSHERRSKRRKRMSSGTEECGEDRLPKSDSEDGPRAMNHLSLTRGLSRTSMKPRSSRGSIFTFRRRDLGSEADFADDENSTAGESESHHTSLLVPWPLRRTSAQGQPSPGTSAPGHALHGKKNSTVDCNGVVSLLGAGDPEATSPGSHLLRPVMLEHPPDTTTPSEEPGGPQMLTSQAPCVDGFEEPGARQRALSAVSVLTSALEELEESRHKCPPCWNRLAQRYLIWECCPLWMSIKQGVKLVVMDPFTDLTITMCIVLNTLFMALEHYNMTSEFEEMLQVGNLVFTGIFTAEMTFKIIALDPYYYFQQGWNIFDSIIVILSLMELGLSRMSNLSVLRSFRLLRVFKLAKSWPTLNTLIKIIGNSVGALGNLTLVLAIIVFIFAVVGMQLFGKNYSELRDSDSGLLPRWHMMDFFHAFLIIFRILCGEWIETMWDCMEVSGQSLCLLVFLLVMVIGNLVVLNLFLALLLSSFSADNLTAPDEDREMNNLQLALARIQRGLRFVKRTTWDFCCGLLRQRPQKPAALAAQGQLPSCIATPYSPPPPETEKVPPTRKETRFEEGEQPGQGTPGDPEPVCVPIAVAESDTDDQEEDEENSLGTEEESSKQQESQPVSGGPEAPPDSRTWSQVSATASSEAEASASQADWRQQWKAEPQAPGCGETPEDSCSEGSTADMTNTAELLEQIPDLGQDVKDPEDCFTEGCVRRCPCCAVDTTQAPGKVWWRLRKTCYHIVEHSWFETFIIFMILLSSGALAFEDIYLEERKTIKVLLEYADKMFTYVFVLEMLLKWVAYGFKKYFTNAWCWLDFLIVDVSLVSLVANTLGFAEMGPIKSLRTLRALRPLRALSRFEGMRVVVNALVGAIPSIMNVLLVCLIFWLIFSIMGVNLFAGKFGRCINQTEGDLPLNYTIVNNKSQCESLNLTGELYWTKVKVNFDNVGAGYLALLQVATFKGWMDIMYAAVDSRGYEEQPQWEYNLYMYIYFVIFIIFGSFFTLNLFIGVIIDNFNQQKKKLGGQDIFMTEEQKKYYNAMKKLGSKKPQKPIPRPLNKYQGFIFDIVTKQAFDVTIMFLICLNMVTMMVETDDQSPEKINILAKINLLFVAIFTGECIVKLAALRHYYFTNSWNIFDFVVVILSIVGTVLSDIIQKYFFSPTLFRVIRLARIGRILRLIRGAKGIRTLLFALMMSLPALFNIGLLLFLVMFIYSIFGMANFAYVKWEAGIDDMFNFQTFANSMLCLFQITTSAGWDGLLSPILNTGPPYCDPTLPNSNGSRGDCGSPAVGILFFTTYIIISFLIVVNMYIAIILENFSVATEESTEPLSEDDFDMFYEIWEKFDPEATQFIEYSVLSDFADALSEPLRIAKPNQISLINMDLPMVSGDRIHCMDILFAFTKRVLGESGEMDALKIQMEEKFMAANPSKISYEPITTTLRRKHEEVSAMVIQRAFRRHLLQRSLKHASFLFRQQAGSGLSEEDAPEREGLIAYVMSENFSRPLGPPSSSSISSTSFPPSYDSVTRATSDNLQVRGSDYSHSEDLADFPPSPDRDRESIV

Structure (SMILES) | IC50 [2] | IC50 [3] | other results
O=S(=O)(Nc1nncs1)c1cc(Cl)c(Oc2ccc(Cl)cc2-c2ccnc(CN3CCC3)c2)cc1F | 4.8 nM |  | 
N#Cc1cc(S(=O)(=O)Nc2ncns2)ccc1Oc1ccc(-c2cccc(C(F)(F)F)c2)cc1-c1ccnc(CN)c1 |  | 0.1 nM | 
N#Cc1cc(S(=O)(=O)Nc2ncns2)ccc1Oc1ccc(Cl)cc1-c1cccc(CNCCC2CCNCC2)c1 | 0.7 nM |  | 
N#Cc1cc(S(=O)(=O)Nc2ncns2)ccc1Oc1ccc(Cl)cc1-c1cccc(CN)c1 | 8.5 nM |  | 
NCc1cc(-c2cc(-c3cccc(C(F)(F)F)c3)ccc2Oc2cc(F)c(S(=O)(=O)Nc3nncs3)cc2Cl)ccn1 |  |  | solubility [4]: 6 µg/mL (≈ 9.43 µM); solubility [5]: < 0.5 µg/mL; solubility [6]: < 0.5 µg/mL; solubility [7]: < 0.5 µg/mL
O=S(=O)(Nc1cscn1)c1cc(Cl)c(Oc2ccc(Cl)cc2-c2ccnc(CN3CCC3)c2)cc1F | 13.2 nM |  | 

Second part, led by results:

IC50 [2] | IC50 [3] | Structure (SMILES) | other results
< 10 nM |  | COCCOCCOCCOCCOCCOCCOCCOCCOCCOCCOCCOCCC(=O)N1CCC(CCNCc2cc(-c3cc(-c4cccc(C(F)(F)F)c4)ccc3Oc3ccc(S(=O)(=O)Nc4ncns4)cc3C#N)ccn2)CC1 | IC50 [1]: > 3000 nM
 | 0.12 nM | Cc1cc(C)n2c1C=C1C=CC(CCCCC(=O)NCCOCCOCCC(=O)N3CCC(CCNCc4cc(-c5cc(-c6cccc(C(F)(F)F)c6)ccc5Oc5ccc(S(=O)(=O)Nc6ncns6)cc5C#N)ccn4)CC3)=[N+]1[B-]2(F)F | 
< 4 nM |  | CC(=O)N1CCC(CCNCc2cc(-c3cc(-c4cccc(C(F)(F)F)c4)ccc3Oc3ccc(S(=O)(=O)Nc4ncns4)cc3C#N)ccn2)CC1 | 
 | 0.1 nM | C#CCCOc1ccc(C(=O)c2ccc(CCC(=O)N3CCC(CCNCc4cc(-c5cc(-c6cccc(C(F)(F)F)c6)ccc5Oc5ccc(S(=O)(=O)Nc6ncns6)cc5C#N)ccn4)CC3)cc2)cc1 | 
